According to patent publication US20260250320A1, “LIPIDATED PEPTIDE INHIBITORS OF INTERLEUKIN-23 RECEPTOR” (Janssen Pharmaceutica NV, priority 2023, published 2026):
*1 amine or outer side, *2 acyl side, *3 side chain or, on linkers, in order; H or OH if unused. Where a SMILES comes first, the peptide text is derived from it. Bridges are numbered along the chain shown (N, C = ends). Side-chain parts run from the residue outwards. [ ]: non-standard residue; d: D form. The star is where a group is joined. ξ: configuration not given here. X33 = C[N+](C)(CCNC(=O)CCOCCOCCOCCOCCOCCOCCOCCOCCOCCOCCOCCOCCNC(=O)CC[C@H](CC(=O)CCCCCCCCCCCCCCCCC(=O)O)C(=O)O)CC(=O)*; Me3N+(CH2)2O(CH2)2O(CH2)2CO = C[N+](C)(C)CCOCCOCCC(=O)*; Trp(7-Me) = Cc1cccc2c(C[C@H](N)C(=O)O)c[nH]c12; C18 diacid = O=C(O)CCCCCCCCCCCCCCCCC(=O)*; γGlu = O=C(O)[C@H](CCC(=O)[*:2])N[*:1]; 2Nal = N[C@@H](Cc1ccc2ccccc2c1)C(=O)O; AEF = NCCOc1ccc(C[C@H](N)C(=O)O)cc1; X2 = C[N+](C)(C)C[C@@H](CC(=O)O)N*; 3Pal = N[C@@H](Cc1cccnc1)C(=O)O; Lys(Me) = CNCCCC[C@H](N)C(=O)O; PEG4 = NCCOCCOCCOCCOCCC(=O)O; Pen = CC(C)(S)[C@H](N)C(=O)O; Suc = O=C(CCC(=O)[*:2])[*:1]; ξ3Pal = NC(Cc1cccnc1)C(=O)O; Ac6c = NC1(C(=O)O)CCCCC1; Thp = NC1(C(=O)O)CCOCC1; AEEA = NCCOCCOCC(=O)O; ClAc = O=C(CCl)*; Sar = CNCC(=O)O

Key:
[1] = system: IL-23-stimulated phosphorylated STAT3 in peripheral blood mononuclear cells (PBMCs); assay: PBMC pSTAT3 Assay; format: cell-based; details: PBMCs from healthy donors; 30 min preincubation with peptide; IL-23 5 ng/mL for 30 min; phospho-STAT3 by MSD
Method in brief: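 Phospho-STAT3 quantified by Meso Scale assay in lysates of PBMCs exposed to IL-23 (5 ng/mL, 30 min, 37 °C) after 30 min peptide pretreatment. Cells were cryopreserved donor PBMCs activated 4 days with anti-CD3 plus IL-1β (100 ng/mL) and starved ~4 h; IC50 reported.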

IL-23R = biological target: T1, IL-23R (Homo sapiens, UniProt Q5VWK5); assay: IL23R Reporter Assay; format: cell-based; details: HEK293 cells containing IL-23R, IL-12Rβ1 and STAT-inducible firefly luciferase reporter; 10 ng/mL IL-23 (EC90); 5 h
T1 construct: HEK293 cells containing IL-23R, IL-12Rβ1 and a firefly luciferase reporter gene driven by a STAT-inducible promoter (Promega); host or cells: HEK293
T1 sequence (Q5VWK5 24-629): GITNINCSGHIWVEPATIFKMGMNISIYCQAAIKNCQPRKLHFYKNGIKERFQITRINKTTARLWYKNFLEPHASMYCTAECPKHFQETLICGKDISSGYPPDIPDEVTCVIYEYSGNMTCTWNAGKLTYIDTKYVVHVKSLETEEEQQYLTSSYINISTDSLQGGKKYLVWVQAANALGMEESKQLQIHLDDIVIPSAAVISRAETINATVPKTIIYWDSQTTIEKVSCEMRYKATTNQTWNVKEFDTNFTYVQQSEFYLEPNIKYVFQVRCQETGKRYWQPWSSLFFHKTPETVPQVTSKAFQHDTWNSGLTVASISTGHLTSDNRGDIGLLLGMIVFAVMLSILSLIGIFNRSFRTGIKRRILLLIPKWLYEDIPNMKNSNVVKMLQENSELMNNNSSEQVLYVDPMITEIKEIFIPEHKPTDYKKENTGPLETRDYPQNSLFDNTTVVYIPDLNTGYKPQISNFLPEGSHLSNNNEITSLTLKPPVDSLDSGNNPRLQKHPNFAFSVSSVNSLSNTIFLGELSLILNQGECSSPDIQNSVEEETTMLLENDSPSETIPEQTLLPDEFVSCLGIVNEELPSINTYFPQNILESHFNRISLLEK
Method in brief: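 IC50 values were fitted with a 4-parameter Hill equation to luciferase signal, scaled between IL-23-only wells (0% inhibition) and 30 μM reference inhibitor (100%). The readout was a STAT-inducible reporter in IL-23R/IL-12Rβ1 HEK293 cells, stimulated with added 10 ng/mL IL-23 (EC90) for 5 h at 37° C and developed with BioGlo.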

Row | IC50 (IL-23R) [nM] | Compound | IC50 [1] [nM]
1 | ≥ 500 | CC(=O)NCCCC[C@@H]1NC(=O)[C@H](Cc2c[nH]c3c(C)cccc23)NC(=O)[C@H]([C@@H](C)O)NC(=O)[C@H](CC(N)=O)NC(=O)[C@@H](NC(C)=O)C(C)(C)SSC(C)(C)[C@@H](C(=O)N[C@@H](Cc2ccc(OCCN)cc2)C(=O)N[C@@H](Cc2ccc3ccccc3c2)C(=O)NC2(C(=O)N[C@@H](CCC(=O)O)C(=O)N[C@@H](CC(N)=O)C(=O)N[C@@H](Cc3cccnc3)C(=O)N(C)CC(=O)OCCOCCOCCNC(=O)COCCOCCNC(=O)CC[C@H](NC(=O)CCCCCCCCCCCCCCCCC(=O)O)C(=O)O)CCOCC2)NC1=O [compound 147, MeCO-Pen(3)-N-T-7MeW-K(Ac)-Pen(3)-AEF-2Nal-THP-E-N-3Pya-Sar-CO(PEG2PEG2gEC18OH)] | 0.5 to 5
2 | 50 to 500 | CC(=O)NCCCC[C@@H]1NC(=O)[C@H](Cc2c[nH]c3c(C)cccc23)NC(=O)[C@H]([C@@H](C)O)NC(=O)[C@H](CCCCNC(=O)COCCOCCNC(=O)COCCOCCNC(=O)CC[C@H](NC(=O)CCCCCCCCCCCCCCCCC(=O)O)C(=O)O)NC(=O)[C@@H](NC(C)=O)C(C)(C)SSC(C)(C)[C@@H](C(=O)N[C@@H](Cc2ccc(OCCN)cc2)C(=O)N[C@@H](Cc2ccc3ccccc3c2)C(=O)NC2(C(=O)N[C@@H](CCCCNC(=O)CCC(=O)N[C@H](CC(=O)O)C[N+](C)(C)C)C(=O)N[C@@H](CC(N)=O)C(=O)N[C@@H](Cc3cccnc3)C(=O)N(C)CC(N)=O)CCOCC2)NC1=O [compound 15, MeCO-r-Pen(3)-N-T-7MeW-K(PEG2PEG2gEC18OH)-Pen(3)-AEF-2Nal-THP-K(d)-N-3Pya-Sar-CONH2] (Ac-[Pen]K([AEEA-AEEA-γGlu-C18 diacid])T[Trp(7-Me)]K(Ac)[Pen][AEF][2Nal][Thp]K([Suc-X2])N[3Pal][Sar]-NH2; disulfide 1-6) | 0.5 to 5
3 | < 50 | CC(=O)NCCCC[C@@H]1NC(=O)[C@H](Cc2c[nH]c3c(C)cccc23)NC(=O)[C@H]([C@@H](C)O)NC(=O)[C@H](CC(N)=O)NC(=O)[C@@H](NC(=O)[C@@H](CCCNC(=N)N)NC(C)=O)C(C)(C)SSC(C)(C)[C@@H](C(=O)N[C@@H](Cc2ccc(OCCN)cc2)C(=O)N[C@@H](Cc2ccc3ccccc3c2)C(=O)NC2(C(=O)N[C@@H](CCCCNC(=O)CCOCCOCCOCCOCCNC(=O)CCl)C(=O)N[C@@H](CC(N)=O)C(=O)N[C@@H](Cc3cccnc3)C(=O)N(C)CC(=O)N[C@@H](CCCCNC(=O)COCCOCCNC(=O)COCCOCCNC(=O)CC[C@H](NC(=O)CCCCCCCCCCCCCCCCC(=O)O)C(=O)O)C(N)=O)CCOCC2)NC1=O [compound 4, MeCO-r-Pen(3)-N-T-7MeW-K(Ac)-Pen(3)-AEF-2Nal-THP-K(PEG4AcCl)-N-3Pya-Sar-K(PEG2PEG2gEC18OH)-CONH2] (Ac-[dR][Pen]NT[Trp(7-Me)]K(Ac)[Pen][AEF][2Nal][Thp]K([PEG4-ClAc])N[3Pal][Sar]K([AEEA-AEEA-γGlu-C18 diacid])-NH2; disulfide 2-7) | < 0.5
4 | < 50 | CC(=O)N(C)CCCC[C@@H]1NC(=O)[C@H](Cc2c[nH]c3c(C)cccc23)NC(=O)[C@H]([C@@H](C)O)NC(=O)[C@H](CC(=O)N(C)C)NC(=O)[C@@H](NC(=O)CCOCCOCC[N+](C)(C)C)C(C)(C)SSC(C)(C)[C@@H](C(=O)N[C@@H](Cc2ccc(OCCNC(=O)C[N+](C)(C)CCNC(=O)CCOCCOCCOCCOCCOCCOCCOCCOCCOCCOCCOCCOCCNC(=O)CC[C@H](CC(=O)CCCCCCCCCCCCCCCCC(=O)O)C(=O)O)cc2)C(=O)N[C@@H](Cc2ccc3ccccc3c2)C(=O)NC2(C(=O)N[C@@H](CCCCN(C)C(C)=O)C(=O)N[C@@H](CC(N)=O)C(=O)NC(Cc3cccnc3)C(=O)N(C)CC(=O)N(C)C)CCCCC2)NC1=O (stereo partly drawn) [compound 141, cPEG3aCO-Pen(3)-N(N(Me)2)-T-7MeW-K(NMeAc)-Pen(3)-AEF(SP6PEG12gEC18OH)-2Nal-THP-K(NMeAc)-N-3Pya-Sar-CON(Me)2] ({Me3N+(CH2)2O(CH2)2O(CH2)2CO}-[Pen]D(NMe2)T[Trp(7-Me)][Lys(Me)](Ac)[Pen][AEF](X33)[2Nal][Ac6c][Lys(Me)](Ac)N[ξ3Pal][Sar]-NMe2; disulfide 1-6) | < 0.5
